From US5411879A, “Fatty acyl reductases” (Calgene Inc., priority 1993, dated 1995)
Like-named read-outs stand apart in the source and are kept apart here. Blank lines part the entries; values can stand above or below the compound they belong to.

What was measured:
[1] = biological target: T1, jojoba acyl-CoA reductase (Simmondsia chinensis, UniProt Q9XGY7); test: Acyl (substrate) specificity of the reductase, microsomal membrane preparation; type: biochemical; parameters: The microsomal membrane preparation described above is used for further characterization of the reductase enzyme; from tissue; host or cells: developing jojoba embryos (seed coats removed), microsomal membrane preparation; settings: acyl-CoA thioester as substrate at 10 μM; 0.5M NaCl; pH 7.5
T1 sequence (Q9XGY7 1-493): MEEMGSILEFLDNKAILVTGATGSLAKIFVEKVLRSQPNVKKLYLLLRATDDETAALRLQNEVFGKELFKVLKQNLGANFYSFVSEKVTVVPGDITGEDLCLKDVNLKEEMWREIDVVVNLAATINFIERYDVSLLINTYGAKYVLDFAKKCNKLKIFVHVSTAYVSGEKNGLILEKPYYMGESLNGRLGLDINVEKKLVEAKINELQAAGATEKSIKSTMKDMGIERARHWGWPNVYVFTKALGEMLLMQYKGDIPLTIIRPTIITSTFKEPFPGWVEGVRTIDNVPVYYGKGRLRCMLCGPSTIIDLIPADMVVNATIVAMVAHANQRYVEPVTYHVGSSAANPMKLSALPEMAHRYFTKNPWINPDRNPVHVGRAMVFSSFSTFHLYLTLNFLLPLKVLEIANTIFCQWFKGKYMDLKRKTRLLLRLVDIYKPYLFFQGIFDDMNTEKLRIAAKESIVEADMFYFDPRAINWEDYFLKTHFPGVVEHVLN
From the text: (§1) 3. […] NaCl concentration in these assays is 0.5M.

[2] = biological target: T1, jojoba acyl-CoA reductase; settings: for inhibitory effect on reductase activity (in words): known reductase/synthase inhibitors and sulphydryl blocking agents
Procedure: Reductase activity in a microsomal membrane preparation is measured by incubation of 20 μM [1-^14 C]acyl-CoA (usually tetracosenoyl-CoA, sp. act. 2-5 Ci/mol) with the sample to be assayed and 2 mM NADPH, in a total volume of 0.25 ml. The incubation mixture also contains 10% w/v glycerol, 1 mM DTT, and is buffered with 50 mM HEPES (4-[2-hydroxyethyl]-1-piperazineethane-sulfonic acid) (HEPES, here and as refered to hereafter is added from a 1M stock solution adjusted to pH 7.5) .
The assay is started by the addition of acyl-CoA substrate and the incubation is carried out at 30° C. for one hour. The assay is terminated by placing the assay tube on ice and immediately adding 0.25 ml isopropanol:acetic acid (5:1 v/v) . Unlabeled wax esters (0.1 mg) and oleyl alcohol (0.1 mg) are added as carriers. The [^14 C] lipids are extracted by the scaled-down protocol of Hara and Radin (Anal. Biochem. (1978) 90:420). Six ml of hexane/isopropanol (3:2, v/v) is added to the terminated assay. The sample is vortexed, 2 ml of aqueous sodium sulphate solution (5.5% w/v) is added, and the sample is again vortexed.
The microsomal membrane preparation described above is used for further characterization of the reductase enzyme. […] Characterization experiments were conducted at pH 7.5, which is close to the presumed physiological pH of the cytoplasm.
1. Salt Effects: A variety of salts were examined for their effect on reductase activity using a standard concentration of 0.5M for monobasic salts. Salts with divalent cations or anions were examined at 0.167M (to give the same ionic strength as the 0.5M monobasic salts) and also at 0.5M.
4. Reductase Inhibitor Assays: Several known inhibitors of other types of reductase proteins were tested for their effect on the jojoba acyl-CoA reductase activity.
Sulphydryl blocking agents were also screened for their effect on reductase activity.

jojoba acyl reductase = biological target: T2, jojoba acyl reductase (Simmondsia chinensis, UniProt Q9XGY7); test: Detergent inhibition of reductase activity and its reversibility; type: biochemical
T2 construct: The microsomal membrane preparation described above is used for further characterization of the reductase enzyme; from tissue; host or cells: developing jojoba embryos (seed coats removed), microsomal membrane preparation
T2 sequence (Q9XGY7 1-493): T1 sequence (Q9XGY7 1-493)
From the text: Often, detergents which are used to solubilize membrane proteins are found to inhibit the enzymatic activity of a desired protein. […] However, as apparent detergent inhibition of reductase activity may be due to some effect other than irreversible inhibition of the enzyme, the reversibility of inhibition by CHAPS was examined.
A protocol for solubilizing jojoba acyl reductase activity utilizing the detergent CHAPS has been devised which yields approximately 85% of the reductase activity from the microsomal membrane preparation. This method is discussed in detail in Example 2. Similarly, studies of reversibility of apparent reductase inhibition by other detergents may be conducted to identify other useful detergents for solubilization of acyl reductase activity for jojoba or other candidate reductases.

[3] = tested on: jojoba acyl-CoA reductase; test: Acyl (substrate) specificity of the reductase, microsomal membrane preparation; type: biochemical; settings: substrates compared at 10 uM, 0.5M NaCl
From the text: as §1

[4] = biological target: T1, jojoba acyl-CoA reductase; test: Competitive inhibition experiment, unlabelled palmitoyl-CoA vs [1-14C]tetracosenoyl-CoA; type: biochemical; parameters: The microsomal membrane preparation described above is used for further characterization of the reductase enzyme; from tissue; host or cells: developing jojoba embryos (seed coats removed), microsomal membrane preparation; settings: unlabelled inhibitor 0-30 μM; [1-14C]tetracosenoyl-CoA 20 μM; read-out: concentration giving 50% inhibition of reductase activity towards tetracosenoyl-CoA
[5] = tested on: jojoba acyl-CoA reductase; settings: previously shown, Pollard et al.; cited from earlier work
[6] = 0.5M for monobasic salts, divalent salts at 0.167M and 0.5M
[7] = millimolar concentrations (given for CoA and NADP+)

Compound: CCCCCCCC/C=C\CCCCCCCCCCCC(=O)SCCNC(=O)CCNC(=O)[C@H](O)C(C)(C)COP(=O)(O)OP(=O)(O)OC[C@H]1O[C@@H](n2cnc3c(N)ncnc32)[C@H](O)[C@@H]1OP(=O)(O)O [22:1 Acyl-CoA]
Reductase Activity, Acyl-CoA (10 μM) [1]: 1.0 pmol/min/µL

Compound: [Cl-].[Cl-].[Mg+2] [MgCl2]
salt effect on reductase activity (in words) [2, 6]: stimulate reductase activity

Compound: C[C@H](CCC(=O)NCCC[N+](C)(C)CCCS(=O)(=O)[O-])[C@H]1CC[C@H]2[C@@H]3[C@H](O)C[C@@H]4C[C@H](O)CC[C@]4(C)[C@H]3C[C@H](O)[C@]12C [CHAPS, 3-[(3-cholamidopropyl)-dimethyl-ammonio]-1-propanesulfonate]
inhibition of reductase activity by detergent (in words) (jojoba acyl reductase; at concentrations above the CMC): strong inhibition
reversibility of detergent inhibition (in words) (jojoba acyl reductase; enzyme exposed on ice, then returned to a concentration at or below the CMC): complete recovery of reductase activity

effect on reductase activity (in words) [2, 7]: significant inhibition
Compound: CC(C)(COP(=O)(O)OP(=O)(O)OC[C@H]1O[C@@H](n2cnc3c(N)ncnc32)[C@H](O)[C@@H]1OP(=O)(O)O)[C@@H](O)C(=O)NCCC(=O)NCCS [CoA, CoenzymeA]

Compound: N#CS [KSCN]
salt effect on reductase activity (in words) [2]: no stimulation or marginal stimulation

Compound: C/C=C/C/C=C/CCC(=O)[C@H]1O[C@H]1C(N)=O [Cerulinen]
inhibitory effect on reductase activity (in words) [2]: no strong inhibitory effect

effect on reductase activity (in words) ([2]; other effectors, pH 7.5): stimulatory
Compound: O[C@H](CS)[C@H](O)CS (racemic) [Dithiothreitol]

Compound: [Ca+2].[Cl-].[Cl-] [CaCl2]
salt effect on reductase activity (in words) [2, 6]: stimulate reductase activity

activity as substrate of the reductase (in words) [3]: high
Compound: palmitoyl-ACP [16:0 Acyl-ACP]

effect on reductase activity (in words) [2, 7]: significant inhibition
Compound: NC(=O)c1ccc[n+]([C@@H]2O[C@H](COP(=O)([O-])OP(=O)(O)OC[C@H]3O[C@@H](n4cnc5c(N)ncnc54)[C@H](OP(=O)(O)O)[C@@H]3O)[C@@H](O)[C@H]2O)c1 [NADP+]

Compound: NC(=O)CI [iodoacetamide]
inhibitory effect on reductase activity (in words) [2]: no effect

Compound: CCCCCCCCCCCCCCCCCC(=O)SCCNC(=O)CCNC(=O)[C@H](O)C(C)(C)COP(=O)(O)OP(=O)(O)OC[C@H]1O[C@@H](n2cnc3c(N)ncnc32)[C@H](O)[C@@H]1OP(=O)(O)O [18:0 Acyl-CoA]
Reductase Activity, Acyl-CoA (10 μM) [1]: 1.4 pmol/min/µL

effect on reductase activity (in words) [2, 7]: marginal effects
Compound: NC(=O)c1ccc[n+]([C@@H]2O[C@H](COP(=O)([O-])OP(=O)(O)OC[C@H]3O[C@@H](n4cnc5c(N)ncnc54)[C@H](O)[C@@H]3O)[C@@H](O)[C@H]2O)c1 [NAD+]

Compound: CCCCCCCCCCCCCCCC(=O)SCCNC(=O)CCNC(=O)[C@H](O)C(C)(C)COP(=O)(O)OP(=O)(O)OC[C@H]1O[C@@H](n2cnc3c(N)ncnc32)[C@H](O)[C@@H]1OP(=O)(O)O [16:0 Acyl-CoA, palmitoyl-CoA]
activity as substrate of the reductase (in words) [3]: barely above background
IC50 [4]: 5 µM

Compound: [Cl-].[K+] [KCl]
salt effect on reductase activity (in words) [2, 6]: stimulate reductase activity

Compound: CCN1C(=O)C=CC1=O [N-ethylmaleimide]
inhibitory effect on reductase activity (in words) [2]: strongly inhibit

Compound: [Cl-].[Na+] [NaCl]
stimulation of reductase activity ([2]; microsomes, 500000 µM): Up to 15 fold

salt effect on reductase activity (in words) [2, 6]: stimulate reductase activity
Compound: O=S(=O)([O-])[O-].[Na+].[Na+] [Na2 SO4]

Compound: CC[C@H](C)C(=O)O[C@H]1C[C@@H](C)C=C2C=C[C@H](C)[C@H](CC[C@@H]3C[C@@H](O)CC(=O)O3)[C@H]21 [Mevinolin]
concentration at which an effect on jojoba acyl-CoA reductase activity was seen ([2]; only had an effect at relatively high concentrations): 100 µM

Compound: stearoyl-ACP
activity as substrate of the reductase (in words) [5]: activity as a substrate

cofactor-dependent reductase activity relative to the NADPH-dependent activity ([2]; cofactor in place of NADPH, not measurable above background): < 2%
effect on reductase activity (in words) [2, 7]: marginal effects
Compound: NC(=O)C1=CN([C@@H]2O[C@H](COP(=O)(O)OP(=O)(O)OC[C@H]3O[C@@H](n4cnc5c(N)ncnc54)[C@H](O)[C@@H]3O)[C@@H](O)[C@H]2O)C=CC1 [NADH]

Compound: CCCCCCCC/C=C\CCCCCCCCCC(=O)SCCNC(=O)CCNC(=O)[C@H](O)C(C)(C)COP(=O)(O)OP(=O)(O)OC[C@H]1O[C@@H](n2cnc3c(N)ncnc32)[C@H](O)[C@@H]1OP(=O)(O)O [20:1 Acyl-CoA]
Reductase Activity, Acyl-CoA (10 μM) [1]: 1.0 pmol/min/µL

Compound: O=C(O)c1cc[c]([Hg][OH])cc1 [para-hydroxymercuribenzoate]
inhibitory effect on reductase activity (in words) [2]: some inhibitory effect

Compound: O=C(O)CN(CCN(CC(=O)O)CC(=O)O)CC(=O)O [ethylenediaminetetraacetic acid]
optimum concentration for stimulation of reductase activity [2]: 2.5 mM
effect on reductase activity (in words) ([2]; pH 7.5): some stimulation

Compound: [Cl-].[Li+] [LiCl]
salt effect on reductase activity (in words) [2, 6]: stimulate reductase activity
